# In patent publication US11491184B2, “Liquids rich in noble gas and methods of their preparation and use” (THE BOARD OF REGENTS OF THE UNIVERSITY OF TEXAS SYSTEM, priority 2013, dated 2022):
# Experiments:
# [1] = cited from earlier work; for concentration dissolved in water: standard temperature and pressure
# [2] = system: apolipoprotein-E (Apo E) knockout (KO) mice; assay: Electrocardiographic (ECG) data after Xe-rich solution; assay type: in vivo; conditions: KO6w treated with Xe, 6-weeks time point
# Description: (§1) All animal studies were approved by the Animal Welfare Committee at The University of Texas Health Science Center at Houston. C57BL/6J wild type (WT) and apolipoprotein-E (Apo E) knockout (KO) mice were purchased from Jackson Laboratory (Bar Harbor, Me., USA), see, e.g., Meir et al., 2004, incorporated herein by reference. The control WT mice used were C57BL/6J, which share the same genetic background with the Apo E KO mice. Six- to eight-month-old male WT and KO mice were fed control or high fat diet (Harlan Laboratories, USA) and administered control or Xe-rich solution (200 μl, once a day) and water drink for 6 weeks, since the Apo E KO mice type fed a high fat diet develop atherosclerotic lesions.
# Baseline measurements by echocardiography were obtained before feeding with the high fat diet. Cardiac morphology and function were assessed by serial M-mode echocardiography using a Vevo 770 Imaging System (VisualSonics Inc., Ontario, Canada) equipped with a 30 MHz microprobe. […] Echo data (HR, heart rate; LVID, left ventricular internal dimension; IVS, intra-ventricular septum; LVPW, left ventricular posterior wall; FS, fractional shortening; SV, stroke volume; EF, ejection fraction; CO, cardiac output; LV Vol, LV volume; LV mass corrected) were analyzed with the analysis software (VisualSonics Inc., Ontario, Canada).
# [3] = Measurement of Xe dissolved / encapsulated in water and hp-beta-CD; assay type: physicochemical; conditions: 3 atm
# Experimental: Xenon was enclosed into a soluble caged molecules (e.g., cyclodextrin). To remove possible residue molecules from cage, the caged molecular was baked at 40-80° C. under vacuum for overnight. To enclose xenon into caged molecules, xenon was incubated with caged molecular in a sealed vial under 2-10 atm pressure at […]. for overnight to 3 days.
# Pure water was degassed under 20-80 mbar vacuum at room temperature for overnight. Xenon (99.999% Medical grade, Matheson Tri-Gas®, Houston, Tex., USA) was re-dissolved into degassed water by pressure water with 2-10 atm xenon gas at 4° C. for overnight to 3 days.
# Xe-rich-water is composed of Xe directly dissolved in water and caging with hydroxypropyl-beta-cyclodextrin (hp-beta-CD) in water. […]
# To measure the amount of Xe dissolved in a Xe-rich-water. […] The solution was then warmed up to 80° C. in a vial with a silicone-rubber seal (Thermo Scientific SepraSeal® (Thermo Scientific, Hudson, N.H., USA) sealed top for 2 hours. After cooling down to room temperature, a syringe with a 17 gauge needle was inserted into a vial through the silicone-rubber seal. The released Xe gas present in the top spacer formed pressure, which pushed Xe gas into the syringe. The amount of Xe released into syringe was then measured.
# [4] = system: apolipoprotein-E (Apo E) knockout (KO) mice; assay: Heart weight normalized to body weight after Xe-rich solution; assay type: in vivo; conditions: KO6w Xe vs KO6w vehicle, 6 weeks
# Description: as §1
# (§2) Animals were divided into 5 groups (see experiment setting). Echocardiography was used to assess cardiac dimensions and function at baseline, and at 6-weeks following the Xe exposure (FIGS. 1 and 2; Table 1). Cardiac size of WT and KO hearts were determined with LV mass (corrected) and normalized to body weight (mg/g) following 6-weeks of the Xe exposure (FIG. 3A).
# [5] = Stated solubility / dissolved concentration of gases and hp-beta-CD; assay type: physicochemical; conditions: room temperature and 1 atm
# [6] = system: apolipoprotein-E (Apo E) knockout (KO) mice; assay: Echocardiographic measurements after oral Xe-rich solution, Apo E KO mice on high fat diet; assay type: in vivo
# Description: as §1
# Baseline measurements by echocardiography were obtained before feeding with the high fat diet. Cardiac morphology and function were assessed by serial M-mode echocardiography using a Vevo 770 Imaging System (VisualSonics Inc., Ontario, Canada) equipped with a 30 MHz microprobe. M-mode ventricular measurements were taken at 6-weeks after the feeding. Electrocardiographic (ECG) data was obtained. Echo data (HR, heart rate; LVID, left ventricular internal dimension; IVS, intra-ventricular septum; LVPW, left ventricular posterior wall; FS, fractional shortening; SV, stroke volume; EF, ejection fraction; CO, cardiac output; LV Vol, LV volume; LV mass corrected) were analyzed with the analysis software (VisualSonics Inc., Ontario, Canada).
# as §2
# [7] = system: Brain-derived Neurotrophic Factor (BDNF); assay: BDNF Sandwich ELISA of heart and brain after Xe-rich solution; assay type: in vivo, mice; conditions: KO6w Xe vs vehicle, 6 weeks
# Description: All animal studies were approved by the Animal Welfare Committee at The University of Texas Health Science Center at Houston. C57BL/6J wild type (WT) and apolipoprotein-E (Apo E) knockout (KO) mice were purchased from Jackson Laboratory (Bar Harbor, Me., USA), see, e.g., Meir et al., 2004, incorporated herein by reference. The control WT mice used were C57BL/6J, which share the same genetic background with the Apo E KO mice. […]
# Fresh frozen heart and brain tissues were slightly thawed on crushed ice to allow dissection of the hearts and brains. […] The protein concentration was determined using a Bradford Protein Assay (Bio-Rad, Calif., USA).
# Except for the heart and brain extracts, the samples (such as plasma) were thawed and clarified at 12,000 rpm for 10 min at 4° C. prior to ELISA assays for β-amyloid per the manufacturer's instructions. BDNF and β-amyloid peptide (Aβ1-40) content were determined by using BDNF Sandwich ELISA Kit (Millipore Corporation, MA, USA) and a Mouse/Rat Amyloid β (1-40) High Specific ELISA Assay Kit (IBLAmerican, Minneapolis, Minn., USA). […] was measured by using SpectroMax Microplate reader (Bio-Tek Instruments) at 450 nm. All samples were analyzed in duplicate.
# [8] = chronic oral administration; cited from earlier work
# [9] = KO6w Xe vs KO6w vehicle, 6 week time point
molecule,measurement,setting,value
"[Ar] [Ar, Argon]",concentration dissolved in water,[1],about 55 μg/ml
"[Xe] [Xe, Xenon]","ECG changes in T wave, ST segment and QRS complex (myocardial ischemia)",[2],did not occur
same,xenon encapsulated in a hp-beta-CD cage,"[3]; −80° C., 0.5 mg/ml of hp-beta-CD",5 mL
same,xenon gas dissolved into 5 ml water,"[3]; degassed water, pure xenon gas, 4° C., 4 hours to overnight",6.5 mL
same,heart weight normalized to body weight,[4],Decreased
same,"Xe in an oil, such as olive oil",[5],about 12 mg Xe/ml
same,increase in LV mass (corrected),"[6]; KO6w Xe vs KO6w vehicle and KO6w control, 6 weeks, Xe-rich solution 200 μl once a day",blocked
same,"wall thickness increase (IVS, LVPW)","[6]; KO6w Xe vs KO6w vehicle and KO6w/control, 6 weeks",significantly blocked
same,decrease in LV ejection fraction (EF),[6]; [9],significantly blocked
same,decrease in LV fractional shortening (FS),[6]; [9],significantly blocked
same,decrease in cardiac output (CO),[6]; [9],significantly blocked
same,"heart rate (HR) increase, in words","[6]; KO6w given Xe, 6 weeks",blocked
same,relative BDNF levels in heart,[7],further increased
same,concentration dissolved in water,[1],about 600 μg/ml
"CC(O)COC[C@H]1O[C@@H]2O[C@H]3[C@H](O)[C@@H](O)[C@@H](O[C@H]4[C@H](O)[C@@H](O)[C@@H](O[C@H]5[C@H](O)[C@@H](O)[C@@H](O[C@H]6[C@H](O)[C@@H](O)[C@@H](O[C@H]7[C@H](O)[C@@H](O)[C@@H](O[C@H]8[C@H](O)[C@@H](O)[C@@H](O[C@H]1[C@H](O)[C@H]2O)O[C@@H]8COCC(C)O)O[C@@H]7COCC(C)O)O[C@@H]6COCC(C)O)O[C@@H]5COCC(C)O)O[C@@H]4COCC(C)O)O[C@@H]3COCC(C)O (stereo partly drawn) [hp-beta-CD, Hydroxypropyl-beta-cyclodextrin]",Solubility,[1],330 mg/mL
cyclodextrin,acceptably safe dose,[8],"about 1,000 mg/kg/day"
